According to ChEMBL document CHEMBL1201862, “PubChem BioAssay data set” (2004):
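Exposure lasted 48 hours, with cells grown in 96-well plates and compounds tested at five concentrations. GI50 marks 50% less growth.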 The source made the active and inactive calls. Rule as the data show it: active = GI50 up to about 1.1 µM and inactive = higher.

Experiments:
Assay in all cases: growth of human tumour cells (NCI), 48 h
A498 = system: A498
HCT-116 = system: HCT-116
HCT-15 = system: HCT-15
HT-29 = system: HT-29
Hs-578T = system: Hs-578T
LOX IMVI = system: LOX IMVI
MCF7 = system: MCF7
MDA-MB-231 = system: MDA-MB-231
MDA-N = system: MDA-N
NCI-H460 = system: NCI-H460
NCI-H522 = system: NCI-H522
OVCAR-3 = system: OVCAR-3
SF-268 = system: SF-268
SF-295 = system: SF-295
SK-MEL-5 = system: SK-MEL-5
T47D = system: T47D
UACC-257 = system: UACC-257
HCC 2998 = system: HCC 2998
NCI-H226 = system: NCI-H226

SMILES	GI50 (A498)	GI50 (HCT-116)	GI50 (HCT-15) [µM]	GI50 (HT-29)	GI50 (Hs-578T)	GI50 (LOX IMVI)	GI50 (MCF7)	GI50 (MDA-MB-231)	GI50 (MDA-N)	GI50 (NCI-H460)	GI50 (NCI-H522)	GI50 (OVCAR-3)	GI50 (SF-268)	GI50 (SF-295)	GI50 (SK-MEL-5)	GI50 (T47D)	GI50 (UACC-257)	GI50 (HCC 2998)	GI50 (NCI-H226)
CO/C(=C/C(=O)C(Cl)(Cl)Cl)CC/C(=C\C(=O)C(Cl)(Cl)Cl)OC	35.3 µM (inactive)	18.8 µM (inactive)	22.5	25 µM (inactive)	35.9 µM (inactive)	19.6 µM (inactive)	24.2 µM (inactive)	42.2 µM (inactive)	22.8 µM (inactive)	29.1 µM (inactive)	20.1 µM (inactive)	26.8 µM (inactive)	26.1 µM (inactive)	36.3 µM (inactive)	34.2 µM (inactive)	25.4 µM (inactive)	19.2 µM (inactive)	–	–
Cc1ccc([S+]([O-])c2sccc2C=O)cc1 (centres undefined)	> 100 µM (inactive)	16.4 µM (inactive)	27.7	19.8 µM (inactive)	24.4 µM (inactive)	14.4 µM (inactive)	21.4 µM (inactive)	26.4 µM (inactive)	27.6 µM (inactive)	21.9 µM (inactive)	41.1 µM (inactive)	> 10 µM (inactive)	28.8 µM (inactive)	23.7 µM (inactive)	29.1 µM (inactive)	43.7 µM (inactive)	53.5 µM (inactive)	32.7 µM (inactive)	–
O=C1c2cccc([N+](=O)[O-])c2C(=O)N1Cc1ccccc1	> 100 µM (inactive)	> 100 µM (inactive)	> 100	> 100 µM (inactive)	> 100 µM (inactive)	> 100 µM (inactive)	> 100 µM (inactive)	> 100 µM (inactive)	> 100 µM (inactive)	> 100 µM (inactive)	> 100 µM (inactive)	> 100 µM (inactive)	> 100 µM (inactive)	> 100 µM (inactive)	> 100 µM (inactive)	> 100 µM (inactive)	> 100 µM (inactive)	> 100 µM (inactive)	> 100 µM (inactive)
CC1CC(=O)N2CCCNC2=C1C#N (centres undefined)	–	> 100 µM (inactive)	> 100	> 100 µM (inactive)	> 100 µM (inactive)	> 100 µM (inactive)	> 100 µM (inactive)	> 100 µM (inactive)	> 100 µM (inactive)	> 100 µM (inactive)	> 100 µM (inactive)	> 100 µM (inactive)	> 100 µM (inactive)	> 100 µM (inactive)	> 100 µM (inactive)	> 100 µM (inactive)	> 100 µM (inactive)	> 100 µM (inactive)	> 100 µM (inactive)
CP(C)(=S)P(C)(C)=S	–	> 100 µM (inactive)	> 100	> 100 µM (inactive)	> 100 µM (inactive)	4.37 µM (inactive)	> 100 µM (inactive)	> 100 µM (inactive)	> 100 µM (inactive)	> 100 µM (inactive)	> 100 µM (inactive)	–	> 100 µM (inactive)	> 100 µM (inactive)	> 100 µM (inactive)	> 100 µM (inactive)	> 100 µM (inactive)	> 100 µM (inactive)	> 100 µM (inactive)
N#C/C(=C/C=C/c1ccco1)C(N)=O	–	–	> 10	> 10 µM (inactive)	> 10 µM (inactive)	> 10 µM (inactive)	> 10 µM (inactive)	> 10 µM (inactive)	> 10 µM (inactive)	> 10 µM (inactive)	> 10 µM (inactive)	> 10 µM (inactive)	> 10 µM (inactive)	> 10 µM (inactive)	> 10 µM (inactive)	> 10 µM (inactive)	–	> 10 µM (inactive)	> 10 µM (inactive)
COC(=O)C[C@H](COCc1ccccc1)NC(=O)C[C@H](COCc1ccccc1)NC(=O)C[C@H](COCc1ccccc1)NC(=O)OC(C)(C)C	24 µM (inactive)	14.5 µM (inactive)	> 100	72.8 µM (inactive)	34.6 µM (inactive)	58.7 µM (inactive)	11.8 µM (inactive)	81.8 µM (inactive)	> 100 µM (inactive)	–	78 µM (inactive)	> 100 µM (inactive)	41.5 µM (inactive)	88.9 µM (inactive)	> 100 µM (inactive)	24.7 µM (inactive)	–	–	> 100 µM (inactive)
CCOC(=O)CCC(NC(=O)C(N)c1ccc([N+](=O)[O-])cc1)C(=O)NC(CCC(=O)OCC)C(=O)OCC (centres undefined)	> 100 µM (inactive)	> 100 µM (inactive)	> 100	> 100 µM (inactive)	> 100 µM (inactive)	–	> 100 µM (inactive)	> 100 µM (inactive)	> 100 µM (inactive)	> 100 µM (inactive)	–	–	–	–	> 100 µM (inactive)	35.6 µM (inactive)	> 100 µM (inactive)	> 100 µM (inactive)	> 100 µM (inactive)
COc1cc(/C=C2\C[C@H]3[C@@H]4CC=C5C[C@@H](OC(C)=O)CC[C@]5(C)[C@H]4CC[C@]3(C)\C2=N\O)cc(OC)c1OC	–	4.53 µM (inactive)	4.42	5.15 µM (inactive)	4.37 µM (inactive)	4.32 µM (inactive)	4.2 µM (inactive)	15.1 µM (inactive)	4.62 µM (inactive)	4.08 µM (inactive)	4.85 µM (inactive)	6.27 µM (inactive)	7.82 µM (inactive)	3.21 µM (inactive)	3.61 µM (inactive)	1.64 µM (inactive)	5.74 µM (inactive)	16 µM (inactive)	8.45 µM (inactive)
C[C@@H]1S[C@H](c2c(Cl)cccc2Cl)N2Cc3ccccc3N=C12	> 100 µM (inactive)	11.5 µM (inactive)	> 100	–	> 100 µM (inactive)	> 100 µM (inactive)	> 100 µM (inactive)	> 100 µM (inactive)	> 100 µM (inactive)	> 100 µM (inactive)	–	> 100 µM (inactive)	> 100 µM (inactive)	> 100 µM (inactive)	> 100 µM (inactive)	> 100 µM (inactive)	> 100 µM (inactive)	> 100 µM (inactive)	–
COC(=O)c1c2c(cc3c1CC1(C3)Cc3cc4c(c(C(=O)OC)c3C1)CCC4)CCC2	> 100 µM (inactive)	> 100 µM (inactive)	–	> 100 µM (inactive)	65.9 µM (inactive)	> 100 µM (inactive)	> 100 µM (inactive)	> 100 µM (inactive)	> 100 µM (inactive)	–	> 100 µM (inactive)	> 100 µM (inactive)	–	> 100 µM (inactive)	> 100 µM (inactive)	> 100 µM (inactive)	> 100 µM (inactive)	> 100 µM (inactive)	> 100 µM (inactive)
CC(=O)Nc1c(S(=O)(=O)c2ccccc2)c(C)c(C)n1CCN(C)C	> 100 µM (inactive)	> 100 µM (inactive)	> 100	> 100 µM (inactive)	> 100 µM (inactive)	–	> 100 µM (inactive)	> 100 µM (inactive)	> 100 µM (inactive)	> 100 µM (inactive)	> 100 µM (inactive)	> 100 µM (inactive)	> 100 µM (inactive)	> 100 µM (inactive)	> 100 µM (inactive)	> 100 µM (inactive)	> 100 µM (inactive)	> 100 µM (inactive)	> 100 µM (inactive)
CC1(C)C=Cc2c(cc3oc4ccc5c(c4c(=O)c3c2O)C=CC(C)(C)O5)O1	> 100 µM (inactive)	> 100 µM (inactive)	> 100	> 100 µM (inactive)	> 100 µM (inactive)	> 100 µM (inactive)	> 100 µM (inactive)	> 100 µM (inactive)	> 100 µM (inactive)	–	> 100 µM (inactive)	> 100 µM (inactive)	> 100 µM (inactive)	> 100 µM (inactive)	> 100 µM (inactive)	> 100 µM (inactive)	> 100 µM (inactive)	> 100 µM (inactive)	> 100 µM (inactive)
Cc1cccc(N(CCC#N)S(=O)(=O)c2ccccc2)c1	> 100 µM (inactive)	> 100 µM (inactive)	> 10	> 100 µM (inactive)	> 100 µM (inactive)	> 100 µM (inactive)	> 100 µM (inactive)	> 100 µM (inactive)	> 100 µM (inactive)	> 100 µM (inactive)	> 100 µM (inactive)	> 100 µM (inactive)	> 100 µM (inactive)	–	69 µM (inactive)	> 100 µM (inactive)	> 100 µM (inactive)	> 100 µM (inactive)	> 100 µM (inactive)
CC(Nc1cccc(Cl)c1)c1ccncc1 (centres undefined)	95.9 µM (inactive)	70.8 µM (inactive)	> 100	> 100 µM (inactive)	> 100 µM (inactive)	> 100 µM (inactive)	> 100 µM (inactive)	> 100 µM (inactive)	> 100 µM (inactive)	> 100 µM (inactive)	83.6 µM (inactive)	49.4 µM (inactive)	> 100 µM (inactive)	> 100 µM (inactive)	31.6 µM (inactive)	27.4 µM (inactive)	74.1 µM (inactive)	–	44.3 µM (inactive)
O=C(NNC(=O)c1ccncc1)c1ccncc1	> 100 µM (inactive)	> 100 µM (inactive)	> 100	> 100 µM (inactive)	> 100 µM (inactive)	> 100 µM (inactive)	> 100 µM (inactive)	> 100 µM (inactive)	> 100 µM (inactive)	> 100 µM (inactive)	> 100 µM (inactive)	> 100 µM (inactive)	> 100 µM (inactive)	> 100 µM (inactive)	> 100 µM (inactive)	> 100 µM (inactive)	> 100 µM (inactive)	–	–
